Patent US20220372067A1, “3.ALPHA.-HYDROXY-17.BETA.-AMIDE NEUROACTIVE STEROIDS AND COMPOSITIONS THEREOF” (SAGE THERAPEUTICS, INC., priority 2018, published 2022)

molecular target: GABAA receptor (TBPS binding site), rat brain cortical membranes; assay: [35S]-TBPS binding assay, rat brain cortical membranes in the presence of 5 mM GABA; conditions: inhibition of 3 nM [35S]-TBPS binding
Experimental: [^35S]-t-Butylbicyclophosphorothionate (TBPS) binding assays using rat brain cortical membranes in the presence of 5 mM GABA has been described (Gee et al, J. Pharmacol. Exp. Ther. 1987, 241, 346-353; Hawkinson et al, Mol. Pharmacol. 1994, 46, 977-985; Lewin, A. H et al., Mol. Pharmacol. 1989, 35, 189-194).
Briefly, cortices are rapidly removed following decapitation of carbon dioxide-anesthetized Sprague-Dawley rats (200-250 g). The cortices are homogenized in 10 volumes of ice-cold 0.32 M sucrose using a glass/teflon homogenizer and centrifuged at 1500×g for 10 min at 4° C. The resultant supernatants are centrifuged at 10,000×g for 20 min at 4° C. to obtain the P2 pellets. The P2 pellets are resuspended in 200 mM NaCl/50 mM Na—K phosphate pH 7.4 buffer and centrifuged at 10,000×g for 10 min at 4° C. This washing procedure is repeated twice and the pellets are resuspended in 10 volumes of buffer. Aliquots ([…]) of the membrane suspensions are incubated with 3 nM [^35S]-TBPS and […] aliquots of test drug dissolved in dimethyl sulfoxide (DMSO) (final 0.5%) in the presence of 5 mM GABA. The incubation is brought to a final volume of 1.0 mL with buffer. Nonspecific binding is determined in the presence of […] and ranged from 15 to 25%. Following a 90 min incubation at room temp, the assays are terminated by filtration through glass fiber filters (Schleicher and Schuell No. 32) using a cell harvester (Brandel) and rinsed three times with ice-cold buffer. Filter bound radioactivity is measured by liquid scintillation spectrometry. Non-linear curve fitting of the overall data for each drug averaged for each concentration is done using Prism (GraphPad). […] The concentration of test compound producing 50% inhibition (IC50) of specific binding and the maximal extent of inhibition (Imax) are determined for the individual experiments with the same model used for the overall data and then the means±SEM.s of the individual experiments are calculated.
Various compounds are or can be screened to determine their potential as modulators of [^35S]-TBPS binding in vitro. These assays are or can be performed in accordance with the above

Question: With `COC[C@@]1(O)CC[C@H]2[C@H](CC[C@@H]3[C@@H]2CC[C@]2(C)[C@@H](C(=O)Nc4ccc(F)cn4)CC[C@@H]32)C1` [Example 10, (3R,5R,8R,9R,10S,13S,14S,17S)-N-(5-fluoropyridin-2-yl)-3-hydroxy-3-(methoxymethyl)-13-methylhexadecahydro-1H-cyclopenta[a]phenanthrene-17-carboxamide] as the molecule, how does the IC50 read?
Answer: Its IC50 is < 100 nM.

Question: Which IC50 does the source give for `COC[C@@]1(O)CC[C@H]2[C@H](CC[C@@H]3[C@@H]2CC[C@]2(C)[C@@H](C(=O)Nc4nc(C)ccc4Cl)CC[C@@H]32)C1` [Example 44] here?
Answer: The IC50 was 100 to 1000 nM.

Question: For `CCOC[C@@]1(O)CC[C@@]2(COC(C)C)[C@H](CC[C@H]3[C@@H]4CC[C@H](C(=O)Nc5ccc(C#N)cn5)[C@@]4(C)CC[C@@H]32)C1` [Example 9, (3R,5R,8S,9S,10R,13S,14S,17S)-N-(5-cyanopyridin-2-yl)-3-(ethoxymethyl)-3-hydroxy-10-(isopropoxymethyl)-13-methylhexadecahydro-1H-cyclopenta[a]phenanthrene-17-carboxamide], which IC50 is on record?
Answer: The IC50 was < 100 nM.

Question: `CCOC[C@@]1(O)CC[C@H]2[C@H](CC[C@@H]3[C@@H]2CC[C@]2(C)[C@@H](C(=O)Nc4cnc(C)cn4)CC[C@@H]32)C1` [Example 25] was tested. Which IC50 did it give?
Answer: The IC50 was < 100 nM.

Question: How did the IC50 turn out when `CCOC[C@@]1(O)CC[C@H]2[C@H](CC[C@@H]3[C@@H]2CC[C@]2(C)[C@@H](C(=O)Nc4ccc(N5CCCC5=O)nc4C)CC[C@@H]32)C1` [Example 65] was run?
Answer: Its IC50 is < 100 nM.

Question: How did the IC50 turn out when `COC[C@@]1(O)CC[C@@]2(C)[C@@H](CC[C@@H]3[C@@H]2CC[C@]2(C)[C@@H](C(=O)Nc4cccnc4C)CC[C@@H]32)C1` [Example 32] was run?
Answer: The IC50 was < 100 nM.

Question: With `CCOC[C@@]1(O)CC[C@H]2[C@H](CC[C@@H]3[C@@H]2CC[C@]2(C)[C@@H](C(=O)Nc4c5c(nn4C)CCCC5)CC[C@@H]32)C1` [Example 54] as the molecule, how does the IC50 read?
Answer: Its IC50 is 100 to 1000 nM.

Question: For `COC[C@@]1(O)CC[C@H]2[C@H](CC[C@@H]3[C@@H]2CC[C@]2(C)[C@@H](C(=O)Nc4cccc(C)n4)CC[C@@H]32)C1` [Example 38], which IC50 is on record?
Answer: The IC50 was < 100 nM.

Question: How did the IC50 turn out when `CCOC[C@@]1(O)CC[C@H]2[C@H](CC[C@@H]3[C@@H]2CC[C@]2(C)[C@@H](C(=O)Nc4ncc(C#N)cc4C)CC[C@@H]32)C1` [Example 23] was run?
Answer: The IC50 was 100 to 1000 nM.

Question: `Cc1nc2n(c1NC(=O)[C@H]1CC[C@H]3[C@@H]4CC[C@@H]5C[C@](C)(O)CC[C@@H]5[C@H]4CC[C@]13C)CCCC2` [Example 13, (3R,5R,8R,9R,10S,13S,14S,17S)-3-hydroxy-3,13-dimethyl-N-(2-methyl-5,6,7,8-tetrahydroimidazo[1,2-a]pyridin-3-yl)hexadecahydro-1H-cyclopenta[a]phenanthrene-17-carboxamide] was tested. Which IC50 did it give?
Answer: Its IC50 is 100 to 1000 nM.

Question: `C[C@]12CC[C@H]3[C@@H](CC[C@@H]4C[C@H](O)CC[C@@H]43)[C@@H]1CC[C@@H]2C(=O)Nc1cnc(C#N)cn1` [Example 14, (3R,5R,8R,9R,10S,13S,14S,17S)-N-(5-cyanopyrazin-2-yl)-3-hydroxy-13-methylhexadecahydro-1H-cyclopenta[a]phenanthrene-17-carboxamide] was tested. Which IC50 did it give?
Answer: The IC50 was < 100 nM.

Question: With `CCOC[C@@]1(O)CC[C@H]2[C@H](CC[C@@H]3[C@@H]2CC[C@]2(C)[C@@H](C(=O)Nc4cccc(C#N)n4)CC[C@@H]32)C1` [Example 60] as the molecule, how does the IC50 read?
Answer: The IC50 was < 100 nM.

Question: With `COC[C@@]1(O)CC[C@H]2[C@H](CC[C@@H]3[C@@H]2CC[C@]2(C)[C@@H](C(=O)Nc4ccc(C(F)(F)F)nc4C)CC[C@@H]32)C1` [Example 46] as the molecule, how does the IC50 read?
Answer: Its IC50 is < 100 nM.

Question: `CCOC[C@@]1(O)CC[C@H]2[C@H](CC[C@@H]3[C@@H]2CC[C@]2(C)[C@@H](C(=O)Nc4cccc(C)n4)CC[C@@H]32)C1` [Example 4, (3R,5R,8R,9R,10S,13S,14S,17S)-3-(ethoxymethyl)-3-hydroxy-13-methyl-N-(6-methylpyridin-2-yl)hexadecahydro-1H-cyclopenta[a]phenanthrene-17-carboxamide] was tested. Which IC50 did it give?
Answer: Its IC50 is < 100 nM.

Question: How did the IC50 turn out when `CCOC[C@@]1(O)CC[C@H]2[C@H](CC[C@@H]3[C@@H]2CC[C@]2(C)[C@@H](C(=O)Nc4cccc(N5CCCC5=O)n4)CC[C@@H]32)C1` [Example 64] was run?
Answer: Its IC50 is < 100 nM.

Question: How did the IC50 turn out when `CCOC[C@@]1(O)CC[C@@]2(CC)[C@H](CC[C@H]3[C@@H]4CC[C@H](C(=O)Nc5cc(C#N)nn5C)[C@@]4(C)CC[C@@H]32)C1` [Example 35] was run?
Answer: Its IC50 is < 100 nM.

Question: Which IC50 does the source give for `CCOC[C@@]1(O)CC[C@H]2[C@H](CC[C@@H]3[C@@H]2CC[C@]2(C)[C@@H](C(=O)Nc4ccc(C#N)cn4)CC[C@@H]32)C1` [Example 22] here?
Answer: Its IC50 is < 100 nM.

Question: How did the IC50 turn out when `CCOC[C@@]1(O)CC[C@H]2[C@H](CC[C@@H]3[C@@H]2CC[C@]2(C)[C@@H](C(=O)Nc4ccccn4)CC[C@@H]32)C1` [Example 20] was run?
Answer: The IC50 was < 100 nM.

Question: Which IC50 does the source give for `COC[C@@]1(O)CC[C@H]2[C@H](CC[C@@H]3[C@@H]2CC[C@]2(C)[C@@H](C(=O)Nc4ccc(C#N)nc4C)CC[C@@H]32)C1` [Example 41] here?
Answer: Its IC50 is < 100 nM.

Question: Which IC50 does the source give for `COC[C@@]1(O)CC[C@H]2[C@H](CC[C@@H]3[C@@H]2CC[C@]2(C)[C@@H](C(=O)Nc4ncccc4Cl)CC[C@@H]32)C1` [Example 39] here?
Answer: Its IC50 is 100 to 1000 nM.

Question: Which IC50 does the source give for `CCOC[C@@]1(O)CC[C@@]2(CC)[C@H](CC[C@H]3[C@@H]4CC[C@H](C(=O)Nc5cc(C)nn5C)[C@@]4(C)CC[C@@H]32)C1` [Example 8, (3R,5R,8S,9S,10S,13S,14S,17S)-N-(1,3-dimethyl-1H-pyrazol-5-yl)-3-(ethoxymethyl)-10-ethyl-3-hydroxy-13-methylhexadecahydro-1H-cyclopenta[a]phenanthrene-17-carboxamide] here?
Answer: Its IC50 is < 100 nM.

Question: How did the IC50 turn out when `COC[C@@]1(O)CC[C@H]2[C@H](CC[C@@H]3[C@@H]2CC[C@]2(C)[C@@H](C(=O)Nc4ccc(-c5ncc(F)cn5)nc4C)CC[C@@H]32)C1` [Example 48] was run?
Answer: The IC50 was < 100 nM.

Question: `CCOC[C@@]1(O)CC[C@H]2[C@H](CC[C@@H]3[C@@H]2CC[C@]2(C)[C@@H](C(=O)Nc4ccncc4)CC[C@@H]32)C1` [Example 1, (3R,5R,8R,9R,10S,13S,14S,17S)-3-(ethoxymethyl)-3-hydroxy-13-methyl-N-(pyridin-4-yl)hexadecahydro-1H-cyclopenta[a]phenanthrene-17-carboxamide] was tested. Which IC50 did it give?
Answer: Its IC50 is < 100 nM.

Question: Which IC50 does the source give for `CCOC[C@@]1(O)CC[C@H]2[C@H](CC[C@@H]3[C@@H]2CC[C@]2(C)[C@@H](C(=O)Nc4cc(C5CC5)nn4C)CC[C@@H]32)C1` [Example 56] here?
Answer: The IC50 was < 100 nM.

Question: With `COC[C@@]1(O)CC[C@H]2[C@H](CC[C@@H]3[C@@H]2CC[C@]2(C)[C@@H](C(=O)Nc4ccc(-n5ccc(C)n5)nc4C)CC[C@@H]32)C1` [Example 52] as the molecule, how does the IC50 read?
Answer: The IC50 was < 100 nM.

Question: How did the IC50 turn out when `CCOC[C@@]1(O)CC[C@H]2[C@H](CC[C@@H]3[C@@H]2CC[C@]2(C)[C@@H](C(=O)Nc4cccnc4F)CC[C@@H]32)C1` [Example 66, (3R,5R,8R,9R,10S,13S,14S,17S)-3-(ethoxymethyl)-N-(2-fluoropyridin-3-yl)-3-hydroxy-13-methylhexadecahydro-1H-cyclopenta[a]phenanthrene-17-carboxamide] was run?
Answer: Its IC50 is < 100 nM.

Question: For `CCOC[C@@]1(O)CC[C@H]2[C@H](CC[C@@H]3[C@@H]2CC[C@]2(C)[C@@H](C(=O)Nc4nc(C)ccc4C)CC[C@@H]32)C1` [Example 59], which IC50 is on record?
Answer: Its IC50 is 100 to 1000 nM.

Question: For `COC[C@@]1(O)CC[C@@]2(C)[C@@H](CC[C@@H]3[C@@H]2CC[C@]2(C)[C@@H](C(=O)Nc4cccc(C)n4)CC[C@@H]32)C1` [Example 5, (3R,5S,8R,9S,10S,13S,14S,17S)-3-hydroxy-3-(methoxymethyl)-10,13-dimethyl-N-(6-methylpyridin-2-yl)hexadecahydro-1H-cyclopenta[a]phenanthrene-17-carboxamide], which IC50 is on record?
Answer: The IC50 was < 100 nM.

Question: With `CCOC[C@@]1(O)CC[C@H]2[C@H](CC[C@@H]3[C@@H]2CC[C@]2(C)[C@@H](C(=O)Nc4nc(C#N)ccc4C)CC[C@@H]32)C1` [Example 61] as the molecule, how does the IC50 read?
Answer: Its IC50 is 100 to 1000 nM.

Question: With `CCOC[C@@]1(O)CC[C@@]2(CC)[C@@H](CC[C@H]3[C@@H]4CC[C@H](C(=O)Nc5ccc(C#N)cn5)[C@@]4(C)CC[C@@H]32)C1` [Example 12, (3R,5S,8S,9S,10S,13S,14S,17S)-N-(5-cyanopyridin-2-yl)-3-(ethoxymethyl)-10-ethyl-3-hydroxy-13-methylhexadecahydro-1H-cyclopenta[a]phenanthrene-17-carboxamide] as the molecule, how does the IC50 read?
Answer: Its IC50 is < 100 nM.

Question: Which IC50 does the source give for `CCOC[C@@]1(O)CC[C@H]2[C@H](CC[C@@H]3[C@@H]2CC[C@]2(C)[C@@H](C(=O)Nc4ccnn4C4CCCC4)CC[C@@H]32)C1` [Example 55] here?
Answer: The IC50 was < 100 nM.
